This note sets out measurements from patent US6515018B1, “Synergistic compositions for lycopene and Vitamin E for the prevention of LDL oxidation” (Lycored Natural Products Industries Ltd., priority 1997, dated 2003).

Holding throughout (format): biochemical, human
For experiment [1], the system named is LDL. Put plainly: CuSO4-induced LDL oxidation measured by TBARS formation. To be noted: CuSO4 (5 μM)-induced LDL oxidation; oleoresin concentration as lycopene; read-out: IC50 for the inhibition of TBARS formation. The protocol:
(§1) Stock solutions of 1 mM of purified lycopene or of 10 mg/ml of tomato's oleoresin, were prepared in Tetrahydrofuran (THF, HPLC grade). All procedures were performed in dim light. LDL was incubated with the respective concentrations of tomato's oleoresin or with 3 μM of lycopene (3 μl/ml THF, derived from a stock solution of 1 mM) for 30 minutes at 37° C. in the dark. LDL incubated with THF alone served as control.
(§2) Oxidation of LDL was carried out in a shaking water bath at 37° C. under air, in plastic tubes (1 cm in diameter). For metal ions dependent oxidation LDL was incubated for 4 hours at 37° C. with freshly prepared CuSO4 (5 μM).
(§3) LDL oxidation was determined by measuring the amount of thiobarbituric acid reactive substances (TBARS) (See: Buege J. A. and Aust S. D. Microsomal lipid peroxidation. Methods Enzymol. 1978; 52: 302-310) and by lipid peroxides formation using a commercially available kit.
(§4) LDL (100 μg of protein/ml) was preincubated for 30 min at 37° C. with either vitamin E or lycopene in various forms. LDL oxidation was induced by the addition of 5 μM of CuSO4 and was […] for 30 min at 37° C. LDL oxidaton was measured by the TBARS assay or by measuring the inhibition of the formation of lipid peroxides. Results are shown in FIG. 1 for vitamin E inhibition and FIG. 2 for crystalline lycopene. […]

Experiment [2] deals with LDL. Put plainly: CuSO4-induced LDL oxidation measured by lipid peroxides formation. To be noted: CuSO4 (5 μM)-induced LDL oxidation; > = maximal concentration used did not achieve 50% inhibition. The protocol: as §1, §2, §3, §4
Experiment [3] relates to LDL. Put plainly: Copper ions-induced LDL oxidation, Colby equation data, readout not marked (TBARS / lipid peroxides). The protocol: as §1, §2, §3, §4

For Vitamin E, the figures for the IC50 in the experiment with LDL [1] and with LDL [2] were 6 µM and 6.5 µM, respectively. The “A = Percent control of vitamin E alone” value in the experiment on LDL [3] (1 μM vitamin E alone) was 0%.

Take `CC(C)=CCC/C(C)=C/C=C/C(C)=C/C=C/C(C)=C/C=C/C=C(C)/C=C/C=C(C)/C=C/C=C(\C)CCC=C(C)C` [Crystalline lycopene, lycopene]: the 50% inhibitory concentration (IC50) in the experiment on LDL [1] and with LDL [2] was more than 50 µM each time. Besides, the “B = Percent control of lycopene alone” value with LDL [3] (Experiment 1: 1 μM crystalline lycopene alone) is reported as 0%.

Broadly, the IC50 is the point on the concentration scale where inhibition reaches its midpoint.
